In patent publication US11369586B2, “Antifungal peptoids” (MIDDLE TENNESSEE STATE UNIVERSITY, priority 2018, dated 2022):

Legend:
[1] = system: HepG2 hepatocarcinoma cells; test: Mammalian cytotoxicity testing (MTT), HepG2; format: cell-based; conditions: for toxicity dose 50% (TD50), HepG2: sarcosine scan
Protocol: (§1) NIH/3T3 mouse fibroblasts and HepG2 hepatocarcinoma cells, cells were grown in DMEM containing 10% FBS at 37° C. and 5% CO2 atmosphere. For cytotoxicity testing, cells were seeded into 96-well plates in phenol red free DMEM containing 10% FBS and incubated for 2 hours to allow cell attachment. Cells were then treated with varying concentrations of peptoid or vehicle control. After 72 hours incubation, 3-(4,5-dimethylthiazol-2-yl)-2,5-diphenyltetrazolium bromide (MTT; 20 μL; 5 mg/mL) was added to each well and the plate incubated for 3.5 hours. Media was removed from each well and 100 μL of DMSO was added and the plate incubated at 37° C. for 10 minutes. The absorbance at 570 nm was then read on a spectrophotometer, percent inhibition determined, and TD50 calculated using GraFit. All triplicate assays were repeated twice on different days.

[2] = system: C. neoformans H99S (serotype A lab strain); test: Minimum inhibitory concentration (MIC) testing, CLSI broth dilution, PrestoBlue viability; format: cell-based, Cryptococcus neoformans
Protocol: The minimum inhibitory concentration (MIC) was determined against C. neoformans H99S (serotype A lab strain) as previously described. (Corson, et al. ACS Med. Chem. Lett. 2016, 7(12).) All MIC assays were carried out following CLSI guidelines. (CLSI. Reference method for broth dilution antifungal susceptibility testing of yeasts; approved standard-third edition; CLSI document M27-A3; Clinical and Laboratory Standards Institute: Wayne, Pa.) Briefly, the organism to be tested was streaked from frozen stock for isolation and incubated for 96 hours. A 5 mL solution of 0.85% saline was inoculated with 1-2 colonies of the organism of interest, and the inoculated solution was vortexed for one minute. The optical density at 530 nanometers (nm) was acquired on a spectrophotometer and adjusted through addition of saline or cells to obtain an OD530nm of 0.15 to 0.25. A 1:100 solution of Roswell Park Memorial Institute (RPMI) media containing 3-morpholinopropane sulfonic acid (MOPS; 0.1 M) and cells was made by adding 0.100 mL of saline inoculated with cells to 9.9 mL of RMPI. The solution was vortexed and used to make a 1:20 solution by adding and vortexing 0.5 mL of the 1:100 solution to 9.5 mL of RPMI+0.1 M MOPS. (This was repeated twice to make a total of 20 mL of 1:20 RPMI+ cells.)
Two-fold serial dilutions of peptoid were prepared in water at 100 times the concentration to be tested. In a 96-well plate, 198 μL of 1:20 RPMI+cells was placed in each well followed by 2 μL of 100-times compound or vehicle control in triplicate. The plate was incubated at 35° C. for 72 hours. For viability analysis, 20 μL of PrestoBlue was added to each well, the plate incubated for 8 hours, and the fluorescent intensity of each well measured (Ex. 555 nm; Em. 585 nm). All triplicate assays were repeated twice on different days.

[3] = Corson et al. 2016; cited from earlier work
[4] = system: human red blood cells (hRBCs); test: Hemolytic activity against human red blood cells; format: cell-based; conditions: human erythrocytes, HC10
Protocol: The hemolytic activity of peptoids against human red blood cells (hRBCs) was done as previously described. (Murugan et al. Bioorg. Med. Chem. Lett. 2013, 23(16), 4633-4636.) Briefly, hRBCs were washed 3× with PBS (11.8 mM phosphate; 140.4 mM NaCl; pH 7.4) by centrifugation (10 minutes at 1000×g). Cells were resuspended in PBS and 100 μL aliquots placed into individual wells of a 96-well plate. Peptoid solutions (2-fold serial dilution in PBS; 400-3.13 μg/mL final) were added to the wells. A negative control was prepared by adding PBS with no peptoid to the hRBCs and a positive control was prepared by adding 1% Triton X-100 to the hRBCs. The plate was incubated at 37° C. for 1 hour, centrifuged at 1000×g for 10 minutes, and 5 μL of supernatant transferred into 95 μL of PBS in a new 96-well plate. Released hemoglobin was measured by reading the absorbance at 405 nm on a spectrophotometer. All triplicate assays were repeated twice on different days. Percent hemolysis was calculated as follows:
[formula] The Hill Slope (H) and HC50 was determined using GraFit and HC10 was calculated from HC50 using the following equation: HC10=HC50[10%/(100%−10%)]^1/H NMR Analysis

[5] = system: NIH/3T3 mouse fibroblasts; test: Mammalian cytotoxicity testing (MTT), NIH/3T3; format: cell-based
Protocol: as §1, with “For” for “NIH/3T3 mouse fibroblasts and HepG2 hepatocarcinoma cells, cells were grown in DMEM containing 10% FBS at 37° C. and 5% CO2 atmosphere. For”

[6] = C. neoformans MIC, relative to AEC5

With `CCCCCCCCCCCCCNCC(=O)N(CCCCN)CC(=O)N(C)CC(N)=O` [AEC5sar3] the “change of mammalian cell toxicity compared to AEC5” value ([1]; HepG2) was “little effect on mammalian toxicity” and the “fold decrease in antifungal potency compared to AEC5” value [2, 6] was 8 fold.
For `CCCCCCCCCCCCCNCC(=O)N(CCCCN)CC(=O)N(CC(N)=O)Cc1ccco1` [AEC5, reference compound], the “TD50 against HepG2 liver cells” value ([1]; 72 hours incubation, MTT) is listed as 56.2 µg/mL, the “toxicity dose 50% (TD50), HepG2” value [1] is listed as 56.2 m/mL and the “in vitro proteolytic stability” value [3] is listed as “excellent”.
With `CCCCCCCCCCCCCNCC(=O)N(CCCCN)CC(=O)N(CC(N)=O)Cc1cccs1` [γ-2] the “level of hemolysis compared to AEC5” value [4] was “slightly higher levels of hemolysis”, the “selectivity ratio (TD50/MIC)” value ([1]; HepG2 TD50 and C. neoformans MIC) was 25.3 and the “fold improvement in antifungal potency compared to AEC5” value [2, 6] was 2 fold. The MIC ([2]; Cryptococcus neoformans, read-out: MIC against C. neoformans) was < 3.5 µg/mL, the “toxicity towards NIH/3T3 mouse fibroblasts compared to AEC5” value [5] was “decreased toxicity” and the “selectivity ratio, NIH/3T3 mouse fibroblasts” value ([5]; NIH/3T3 toxicity and C. neoformans MIC) was 21.
With `CCCCCCCCCCCCCNCC(=O)N(C)CC(=O)N(CC(N)=O)Cc1ccco1` [AEC5sar2] the “fold change of toxicity dose 50% (TD50) compared to AEC5” value ([1]; HepG2, relative to AEC5, printed as increased) was 2 fold, the “toxicity dose 50% (TD50), HepG2” value [1] was 21.1 m/mL and the “fold decrease in antifungal potency compared to AEC5” value [2, 6] was 2 fold.
In the case of `CNCC(=O)N(CCCCN)CC(=O)N(CC(N)=O)Cc1ccco1` [AEC5sar1], the “toxicity dose 50% (TD50), HepG2” value [1] is reported as > 800 m/mL and the “antifungal potency (MIC), above highest concentration tested” value ([2]; sarcosine scan) is reported as > 400 m/mL.
